Laboratory results: patent US20240158418A1 (C4 Therapeutics, Inc., priority 2021, published 2024)

Key:
Type in all cases: cell-based
EGFR L858R = EGFR L858R (Homo sapiens, UniProt P00533, L858R); assay: EGFR degradation, Total EGFR (L858R-specific) HTRF, NCI-H3255; parameters: NCI-H3255 (harboring EGFR heterozygous L858R mutation); host or cells: NCI-H3255; conditions: H3255 (L858R), 6 hours; read-out: tEGFR DC50
Method in brief: (§1)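 Cells in RPMI 1640 + 10% FBS treated 6 h at 37°C with compound, 11-point half-log titration from 10 μM top, in duplicate. pY1068 and total EGFR read by HTRF (pan-EGFR antibody for wild-type A431; L858R-specific for mutants); IC50 for phospho inhibition, DC50 for 50% degradation.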

EGFR L858R-T790M = target: T1, EGFR L858R-T790M (Homo sapiens, UniProt P00533, L858R/T790M); assay: EGFR degradation, Total EGFR (L858R-specific) HTRF, NCI-H1975; conditions: Table 9A; NCI-H1975 cells, 6 hours, Total EGFR HTRF; read-out: H1975 EGFR DC50
T1 construct: NCI-H1975 (harboring EGFR heterozygous L858R-T790M mutations); host or cells: NCI-H1975
Method in brief: as §1

[1] = system: BaF3 cells expressing EGFR L858R-T790M-C797S; assay: Ba/F3 EGFR cell viability (CellTiter-Glo), L858R-T790M-C797S; conditions: Mus musculus, read-out: CTGlo (GI50)
Excerpt: (§2) RPMI 1640 media, cell culture flasks, and 384-well microplates were purchased from VWR (Radnor, PA, USA). Fetal bovine serum (FBS) was purchased from Life Technologies (Carlsbad, CA, USA) and CellTiter-Glo® was purchased from Promega (Madison, WI, USA). The Ba/F3 parental cell line was purchased from CrownBio (Santa Clara, CA). BaF3 cell lines ectopically expressing the EGFR mutations L858R, L858R-T790M, L858R-C797S, and L858R-T790M-C797S were purchased from CrownBio and EGFR mutations L858R-L718Q, L858R-T790M-L718Q, L858R-L792H, and L858R-T790M-L792H, were purchased from Signosis (Santa Clara, CA).
(§3) Cell viability was assessed based on the quantification of ATP using the CellTiter-Glo® assay (Promega, Madison, WI, USA). To determine the effect of compounds on cell viability, all Ba/F3 cell lines were plated at a cell density of 2000 cells/well in 384-well plates using RPMI 1640+10% FBS and treated with compounds of interest using a 10-point half-log dilution series in duplicate for 72 hours, with the highest dose set at […]. CellTiter-Glo® reagent was then added and luminescence signals were measured using an EnVision™ Multimode plate reader (Perkin Elmer, Santa Clara, CA). For data normalization, cells untreated with the test compounds at Time=72 hours were set to 100% (equivalent to maximal cell growth after 72 hours); cells untreated with the test compounds at Time=0 hours were set to 0% (equivalent to cytostasis); and media-only wells were set to −100% (equivalent to complete cytotoxicity). % Viability was determined by normalizing the signal with positive and DMSO treated negative controls on the same microtiter plate. The half-maximal inhibition of cell growth (GI50) is computed from where the fitted curve crosses 50% while the half-maximal lethal dose (LD50) is computed from where the fitted curve crosses −50%.

EGFR WT = target: T2, EGFR WT (Homo sapiens, UniProt P00533); assay: EGFR degradation, Total EGFR (pan-EGFR) HTRF, A431; conditions: A431 (wild-type), 6 hours; read-out: tEGFR DC50
T2 construct: A431 (harboring EGFR wildtype) was purchased from ATCC; host or cells: A431
Excerpt: (§4) NCI-H1975 (harboring EGFR heterozygous L858R-T790M mutations) and NCI-H3255 (harboring EGFR heterozygous L858R mutation) were purchased from ATCC and NCI, respectively. NCI-H1975+CS (harboring EGFR heterozygous L858R-T790M-C797S mutations) was generated using CRISPR technology to introduce the additional C797S mutation by Horizon Discovery. A431 (harboring EGFR wildtype) was purchased from ATCC. RPMI 1640 no-phenol red medium and fetal bovine serum (FBS) were purchased from Gibco (Grand Island, NY, USA). Cell culture flasks and 384-well microplates were acquired from VWR (Radnor, PA, USA). Phosphorylated (pY1068) EGFR and Total EGFR (using L858R-specific detection antibody and pan-EGFR antibody for EGFR mutant cell lines and EGFR wild-type cell lines, respectively) HTRF assay kits were purchased from Cisbio (Bedford, MA, USA).
(§5) Degradation of EGFR protein containing L858R mutation or wild-type was determined based on quantification of FRET signal using a Total EGFR (L858R-specific or pan-EGFR detecting) HTRF assay kit. Phospho-EGFR (pEGFR) inhibition was determined based on quantification of FRET signal using a pY1068 EGFR HTRF assay kit. In separate assay plates, test compounds were added to the 384-well plate from a top concentration of 10 μM with 11 points, half log titration in duplicates. For each assay, 12.5 uL of cells suspended in assay media (RPMI 1640 no-phenol red medium+10% FBS) at cell densities indicated for each cell line in Table 8 below were dispensed using a multi-channel pipette to 384-well low volume white HTRF microplates containing a duplicate concentration range of test compounds and DMSO controls. The plates were kept at 37° C. with 5% CO2 for 6 hours and then incubated with either phospho EGFR or Total EGFR HTRF detection antibodies according to the cell line and EGFR mutant being assayed. Cells treated in the absence of the test compound were the negative control. Positive control was set by wells containing all reagents but no cells. FRET signal was acquired on EnVision™ Multilabel Reader (PerkinElmer, Santa Clara, CA, USA). Compound concentration that achieves 50% degradation and inhibition was reported as DC50 and IC50, respectively.

pY1068 EGFR L858R = target: T3, pY1068 EGFR L858R (Homo sapiens, UniProt P00533, L858R); assay: Phospho-EGFR (pY1068) inhibition HTRF, NCI-H3255; conditions: 6 hours, read-out: pEGFR IC50
T3 construct: NCI-H3255 (harboring EGFR heterozygous L858R mutation); host or cells: NCI-H3255
Excerpt: as §4, §5

[2] = system: BaF3 cells expressing EGFR L858R-C797S; assay: Ba/F3 EGFR cell viability (CellTiter-Glo), L858R-C797S; conditions: Mus musculus, read-out: CTGlo (GI50)
Excerpt: as §2, §3

EGFR L858R-T790M-C797S = target: T4, EGFR L858R-T790M-C797S (Homo sapiens, UniProt P00533, C797S/L858R/T790M); assay: EGFR degradation, Total EGFR (L858R-specific) HTRF, NCI-H1975+CS; conditions: H1975 + CS (L858R-T790M-C797S), 6 hours; read-out: tEGFR DC50
T4 construct: generated using CRISPR technology to introduce the additional C797S mutation by Horizon Discovery; host or cells: NCI-H1975+CS (CRISPR knock-in of C797S)
Method in brief: as §1

[3] = system: BaF3 cells expressing EGFR L858R; assay: Ba/F3 EGFR cell viability (CellTiter-Glo), L858R; conditions: Mus musculus, read-out: CTGlo (GI50)
Excerpt: as §2, §3

pY1068 EGFR L858R-T790M = target: T5, pY1068 EGFR L858R-T790M (Homo sapiens, UniProt P00533, L858R/T790M); assay: Phospho-EGFR (pY1068) inhibition HTRF, NCI-H1975; conditions: 6 hours, read-out: pEGFR IC50
T5 construct: NCI-H1975 (harboring EGFR heterozygous L858R-T790M mutations); host or cells: NCI-H1975
Excerpt: as §4, §5

[4] = system: BaF3 cells expressing EGFR L858R-T790M; assay: Ba/F3 EGFR cell viability (CellTiter-Glo), L858R-T790M; conditions: Mus musculus, read-out: CTGlo (GI50)
Excerpt: as §2, §3

[5] = system: BaF3 cells expressing wild-type EGFR; assay: Ba/F3 EGFR cell viability (CellTiter-Glo), wild-type EGFR; conditions: Mus musculus, Ba/F3 WT EGFR, read-out: CTGlo (GI50)
[6] = target: T6, pY1068 EGFR L858R-T790M-C797S (Homo sapiens, UniProt P00533, C797S/L858R/T790M); assay: Phospho-EGFR (pY1068) inhibition HTRF, NCI-H1975+CS; conditions: 6 hours, read-out: pEGFR IC50
T6 construct: generated using CRISPR technology to introduce the additional C797S mutation by Horizon Discovery; host or cells: NCI-H1975+CS (CRISPR knock-in of C797S)
Excerpt: as §4, §5

T4 sequence (P00533 25-1210 T790M/C797S/L858R): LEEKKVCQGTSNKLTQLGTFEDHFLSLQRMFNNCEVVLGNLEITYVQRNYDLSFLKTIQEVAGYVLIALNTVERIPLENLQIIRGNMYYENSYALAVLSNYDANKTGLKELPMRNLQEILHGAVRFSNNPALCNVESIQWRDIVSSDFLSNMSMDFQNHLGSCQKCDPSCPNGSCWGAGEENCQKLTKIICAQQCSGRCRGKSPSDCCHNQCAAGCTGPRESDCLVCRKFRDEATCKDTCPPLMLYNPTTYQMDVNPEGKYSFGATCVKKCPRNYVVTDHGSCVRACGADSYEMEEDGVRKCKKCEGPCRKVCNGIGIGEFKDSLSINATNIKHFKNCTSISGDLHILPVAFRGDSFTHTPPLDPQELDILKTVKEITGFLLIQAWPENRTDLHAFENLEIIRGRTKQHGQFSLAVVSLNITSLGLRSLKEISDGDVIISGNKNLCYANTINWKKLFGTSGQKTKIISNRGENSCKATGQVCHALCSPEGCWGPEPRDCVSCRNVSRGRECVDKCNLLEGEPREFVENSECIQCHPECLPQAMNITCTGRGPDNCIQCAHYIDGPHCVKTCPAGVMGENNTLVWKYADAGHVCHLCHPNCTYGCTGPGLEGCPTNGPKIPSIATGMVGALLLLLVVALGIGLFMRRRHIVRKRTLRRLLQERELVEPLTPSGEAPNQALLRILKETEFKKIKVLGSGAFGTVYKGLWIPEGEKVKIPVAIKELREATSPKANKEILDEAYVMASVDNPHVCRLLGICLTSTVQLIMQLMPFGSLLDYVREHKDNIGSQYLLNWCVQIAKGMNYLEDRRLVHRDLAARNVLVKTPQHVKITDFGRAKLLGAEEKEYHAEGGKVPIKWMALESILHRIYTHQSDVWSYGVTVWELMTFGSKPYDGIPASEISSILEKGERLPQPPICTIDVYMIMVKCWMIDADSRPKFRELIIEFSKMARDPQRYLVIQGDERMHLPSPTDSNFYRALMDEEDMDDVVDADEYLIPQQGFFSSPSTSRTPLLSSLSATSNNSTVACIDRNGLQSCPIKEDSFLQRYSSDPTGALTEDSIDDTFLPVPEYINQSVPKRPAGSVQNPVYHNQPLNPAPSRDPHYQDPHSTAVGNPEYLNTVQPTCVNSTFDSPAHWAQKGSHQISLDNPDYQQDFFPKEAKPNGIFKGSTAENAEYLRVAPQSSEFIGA
T6 sequence (P00533 25-1210 T790M/C797S/L858R): as above
T1 sequence (P00533 25-1210 T790M/L858R): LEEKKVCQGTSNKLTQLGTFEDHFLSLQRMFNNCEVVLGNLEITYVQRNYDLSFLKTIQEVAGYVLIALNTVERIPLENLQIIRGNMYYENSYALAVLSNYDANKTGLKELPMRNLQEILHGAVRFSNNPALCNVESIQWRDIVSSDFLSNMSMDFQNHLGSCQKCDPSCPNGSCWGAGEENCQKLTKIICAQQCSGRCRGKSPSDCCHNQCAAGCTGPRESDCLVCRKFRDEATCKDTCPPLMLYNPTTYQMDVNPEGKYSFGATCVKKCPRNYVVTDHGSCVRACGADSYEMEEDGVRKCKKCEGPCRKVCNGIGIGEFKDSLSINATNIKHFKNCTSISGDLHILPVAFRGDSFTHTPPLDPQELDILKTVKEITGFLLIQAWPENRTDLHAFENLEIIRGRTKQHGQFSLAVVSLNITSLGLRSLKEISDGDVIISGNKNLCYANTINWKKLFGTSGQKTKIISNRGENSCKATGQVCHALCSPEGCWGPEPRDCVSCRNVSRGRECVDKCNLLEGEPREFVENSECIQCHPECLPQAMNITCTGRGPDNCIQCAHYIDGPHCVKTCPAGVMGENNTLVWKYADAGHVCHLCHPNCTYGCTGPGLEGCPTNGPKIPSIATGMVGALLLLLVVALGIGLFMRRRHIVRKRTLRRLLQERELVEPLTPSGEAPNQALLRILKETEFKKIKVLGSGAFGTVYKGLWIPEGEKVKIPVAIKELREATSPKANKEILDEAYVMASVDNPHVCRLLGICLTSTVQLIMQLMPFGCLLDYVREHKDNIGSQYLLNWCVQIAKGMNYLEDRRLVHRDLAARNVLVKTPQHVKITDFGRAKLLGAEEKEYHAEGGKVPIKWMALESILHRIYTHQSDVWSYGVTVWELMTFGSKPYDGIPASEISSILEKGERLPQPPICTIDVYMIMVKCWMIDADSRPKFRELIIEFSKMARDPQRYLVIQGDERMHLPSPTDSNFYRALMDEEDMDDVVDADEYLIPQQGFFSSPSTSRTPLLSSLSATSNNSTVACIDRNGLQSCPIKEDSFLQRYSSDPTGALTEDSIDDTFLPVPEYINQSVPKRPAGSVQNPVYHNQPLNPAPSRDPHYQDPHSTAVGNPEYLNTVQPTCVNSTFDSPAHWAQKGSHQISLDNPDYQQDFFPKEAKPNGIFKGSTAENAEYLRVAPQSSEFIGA
T5 sequence (P00533 25-1210 T790M/L858R): as above

DC50 (EGFR L858R): 8 nM
DC50 (EGFR L858R-T790M): < 50 nM
GI50 [1]: 3 nM
DC50 (EGFR WT): > 10000 nM
IC50 (pY1068 EGFR L858R): 8 nM
GI50 [2]: 2 nM
DC50 (EGFR L858R-T790M-C797S): 33 nM
GI50 [3]: 3 nM
IC50 (pY1068 EGFR L858R-T790M): 11 nM
GI50 [4]: 9 nM
GI50 [5]: 248 nM
IC50 [6]: 19 nM
SMILES: Cn1nc(N2CCC(=O)NC2=O)c2ccc(C3CCN(CC(=O)N4CC5(C4)CN(c4ccc(-c6cc(F)c7c(c6)C(=O)N(C(C(=O)Nc6nccs6)c6ncn8c6CCC8)C7)cc4)C5)CC3(F)F)cc21 (stereo not drawn) [Compound 3, 2-(6,7-dihydro-5H-pyrrolo[1,2-c]imidazol-1-yl)-2-[6-[4-[2-[2-[4-[3-(2,4-dioxohexahydropyrimidin-1-yl)-1-methyl-indazol-6-yl]-3,3-difluoro-1-piperidyl]acetyl]-2,6-diazaspiro[3.3]heptan-6-yl]phenyl]-4-fluoro-1-oxo-isoindolin-2-yl]-N-thiazol-2-yl-acetamide]
